# Experimental data as given in patent US20240327392A1, “HETEROCYCLOALKYL-SUBSTITUTED POLYHETEROAZOLE DERIVATIVES AS MEDICAMENTS FOR TREATING AND/OR PREVENTING RS VIRUS INFECTIONS” (ALBIUS SCIENCES ALPHA PRIVATE LIMITED, priority 2021, published 2024).
# Where two headings read alike, the source gives them in different places.
# System: human RS virus A2 strain
# Assay: In vitro test for anti-RS virus proliferation inhibitory activity (quantitative RT-PCR of RS virus RNA copy number in infected Vero cells)
# Assay type: cell-based
# Settings: 72 h, Vero cells infected with human RS virus A2 strain, 3 days of incubation, read-out: Anti-RS virus Activity
# Procedure: A mixture of Vero cells (3.4×10^5 cells/mL) and human RS virus A2 strain (1.7×10^4 TCID50/mL) (EMEM medium supplemented with 10% FCS) was added to a 96-well plate at 50 μL/well, and the 10% FCS-supplemented EMEM medium adjusted to the desired final concentration of the compounds to be tested was added at 50 μL/well, followed by incubating the plate at 37° C. in the presence of 5% CO2 at 37° C. After 3 days of incubation, the supernatant was removed, the cells were washed with PBS(−), and the cell lysis buffer supplied with the SingleShot (registered trademark) Cell Lysis Kit (Bio-Rad) was added dropwise at 50 μL/well to lysis the cells thereby providing the cell lysate.
# Human RS virus RNA copy number in the cell lysate was determined by quantitative RT-PCR using iTaq Universal SYBR Green One-Step Kit (Bio-Rad). Specifically, primers targeting human RS virus N gene (Rameix-Welti et al, Nat Commun5: 5104, 2014. doi: 10.1038/ncomms6104) was used to prepare the reaction solution according to the instructions provided with the kit, and a 96-well PikoReal Real-Time PCR System (TCR0096, Thermo Fisher Scientific) was used to detect PCR reaction and signal assay.
# The copy number was calculated by the relative method using the comparative Ct method using compound-free virus-infected cells as controls.
# [1] = RS virus RNA copy number by quantitative RT-PCR
# [2] = RS virus N gene RNA copy number by quantitative RT-PCR
Structure (SMILES),IC50 [1],IC50 [2]
"O=S(=O)(Cc1ccccc1)N1CC2(CC2)C[C@H]1c1nc(CCCc2ccccc2)no1 [Compound 5E, 3-(3-Phenylpropyl)-5-{(6S)-5-benzylsulfonyl-5-azaspiro[2.4]hept-6-yl}-1,2,4-oxadiazole]",10 to 50 µM,
"COC(=O)c1nc([C@@H]2CCCCN2S(=O)(=O)C2CCCCC2)sc1C [Compound 35B, Methyl (S)-2-(1-(cyclohexylsulfonyl)piperidin-2-yl)-5-methylthiazole-4-carboxylate]",10 to 50 µM,
"CC(C)(C)OC(=O)N1C[C@@H](CC2CCC2)C[C@H]1c1nc(CCCc2ccccc2)no1 (racemic) [Compound 6-1, 3-(3-phenylpropyl)-5-(1-tert-butoxycarbonyl-4-cyclobutylmethylpyrrolidin-2-yl)-1,2,4-oxadiazole]",< 10 µM,
"CC(C)(C)OC(=O)N1C[C@H](c2ccccc2)C[C@H]1c1nc(CCCCc2ccccc2)no1 [Compound C4-7-1, Tert-butyl (2S,4S)-4-phenyl-2-(3-(4-phenylbutyl)-1,2,4-oxadiazol-5-yl)pyrrolidine-1-carboxylate]",< 10 µM,
"CC(C)CS(=O)(=O)N1CCC[C@H]1c1nc(CNC(=O)c2cccc3ccccc23)no1 [Compound 11A, 3-[(1-naphthoylamino)methyl]-5-[(2S)-1-isobutylsulfonylpyrrolidin-2-yl]-1,2,4-oxadiazole]",< 10 µM,
"CCN1CCCC[C@H]1c1nc(CCCc2ccccc2)no1 [Compound 2Z, (S)-5-(1-ethylpiperidin-2-yl)-3-(3-phenylpropyl)-1,2,4-oxadiazole]",10 to 50 µM,
O=S(=O)(N1CCCCC1)N1C[C@H](c2ccccc2)C[C@H]1c1nc(CCCc2ccccc2)no1 [Compound 7AD],10 to 50 µM,
"CC(C)(C)OC(=O)N1C[C@@H](C#N)C[C@H]1c1nc(CCCc2ccccc2)no1 [Compound 41-1, Tert-butyl (2S,4S)-4-cyano-2-(3-(3-phenylpropyl)-1,2,4-oxadiazol-5-yl)pyrrolidine-1-carboxylate]",10 to 50 µM,
"O=S(=O)(c1ccccc1)N1C[C@H](O)C[C@H]1c1nc(CCCc2ccccc2)no1 [Compound 3D, 3-(3-phenylpropyl)-5-[(2S,4R)-1-benzenesulfonyl-4-hydroxypyrrolidin-2-yl]-1,2,4-oxadiazole]",,> 50 µM
"CC(C)(C)OC(=O)N1CCCC[C@H]1c1nnc(CCCc2ccccc2)o1 [Compound 18-1, Tert-butyl (S)-2-(5-(3-phenylpropyl)-1,3,4-oxadiazol-2-yl) piperidine-1-carboxylate]",< 10 µM,
"CC(C)CCN1CCCC[C@H]1c1nc(CCCc2ccccc2)no1 [Compound 2T, (S)-5-(1-isopentylpiperidin-2-yl)-3-(3-phenylpropyl)-1,2,4-oxadiazole]",10 to 50 µM,
"CC(C)(C)OC(=O)N1[C@@H]2CC[C@@H](C2)[C@H]1c1nnc(Cc2cc3ccccc3[nH]2)[nH]1 [Compound 28-1, Tert-butyl (1R,3S,4S)-3-(5-((1H-indol-2-yl)methyl)-4H-1,2,4-triazol-3-yl)-2-azabicyclo[2.2.1]heptane-2-carboxylate]",10 to 50 µM,
"O=C(c1ccc2cc(C(=O)N3C[C@H](O)C[C@H]3c3nc(CCCc4ccccc4)no3)ccc2c1)N1C[C@H](O)C[C@H]1c1nc(CCCc2ccccc2)no1 [Compound 4-6, Naphthalene-2,6-diylbis(((2S,4R)-4-hydroxy-2-(3-(3-phenylpropyl)-1,2,4-oxadiazol-5-yl)pyrrolidin-1-yl)methanone)]",,> 50 µM
"CC(C)(C)OC(=O)N1CCC(CS(=O)(=O)N2C[C@H](c3ccccc3)C[C@H]2c2nc(CCCc3ccccc3)no2)CC1 [Compound 7AN, tert-buthyl 4-((((2S,4S)-4-phenyl2-(3-(3-phenylpropyl)-1,2,4-oxadiazole-5-yl)pyrrolidin-1-yl)sulfonyl)methyl)piperidin-1-carboxylate]",< 10 µM,
"CC(C)(C)OC(=O)N1CCCC[C@H]1c1nnc(CCc2ccccc2)o1 [Compound 17-1, Tert-butyl (S)-2-(5-phenethyl-1,3,4-oxadiazol-2-yl) piperidine-1-carboxylate]",< 10 µM,
"O=S(=O)(Cc1ccccc1)N1CC(c2ccccc2)C[C@H]1c1nc(CCCc2ccccc2)no1 (stereo in doubt) [Compound 7E, 3-(3-Phenylpropyl)-5-[(2S,4S)-1-benzylsulfonyl-4-phenylpyrrolidin-2-yl]-1,2,4-oxadiazole]",> 50 µM,
CC(=O)N1CCC[C@H]1c1nc(CCCc2ccccc2)no1 [Compound 1R],10 to 50 µM,
"CC(C)CS(=O)(=O)N1C[C@H](F)C[C@H]1c1nc(CCCc2ccccc2)no1 [Compound 8A, 3-(3-phenylpropyl)-5-[(2S,4R)-1-isobutylsulfonyl-4-fluoropyrrolidin-2-yl]-1,2,4-oxadiazole]",10 to 50 µM,
"CCOC(=O)C1CCN(S(=O)(=O)N2CC3(CC3)C[C@H]2c2nc(CCCc3ccccc3)no2)CC1 [Compound 5AC, ethyl (S)-1-((6-(3-(3-phenylpropyl)-1,2,4-oxadiazole-5-yl)-5-azaspiro[2.4]heptan-5-yl)sulfonyl)piperidin-4-carboxylate]",10 to 50 µM,
"CC(C)CCN1CCC[C@H]1c1nc(CCCc2ccccc2)no1 [Compound 1T, (S)-5-(1-isopentylpyrrolidin-2-yl)-3-(3-phenylpropyl)-1,2,4-oxadiazole]",< 10 µM,
"c1ccc(CCCc2noc([C@@H]3CCCCN3CC3CCCCC3)n2)cc1 [Compound 2U, (S)-5-(1-(cyclohexylmethyl)piperidin-2-yl)-3-(3-phenylpropyl)-1,2,4-oxadiazole]",< 10 µM,
"CC(C)(C)NC(=O)N1CCCC[C@H]1c1nc(CCc2ccncc2)no1 [Compound 12H, (S)—N-(tert-butyl)-2-(3-(2-(pyridin-4-yl)ethyl)-1,2,4-oxadiazol-5-yl)piperidine-1-carboxamide]",10 to 50 µM,
"NC(=O)[C@H]1C[C@@H](c2nc(CCCc3ccccc3)no2)N(S(=O)(=O)c2ccc(F)cc2)C1 [Compound 42AJ, (3S,5S)-1-((4-fluorophenyl)sulfonyl)-5-(3-(3-phenylpropyl)-1,2,4-oxadiazol-5-yl)pyrrolidine-3-carboxamide]",10 to 50 µM,
"O=C(Cc1ccccc1)N1CCC[C@H]1c1nc(CCCc2ccccc2)no1 [Compound 1P, (S)-2-Phenyl-1-(2-(3-(3-phenylpropyl)-1,2,4-oxadiazol-5-yl)pyrrolidin-1-yl) ethan-1-one]",< 10 µM,

# More lines, now with the values ahead:
IC50 [1],IC50 [2],Structure (SMILES)
< 10 µM,,"COc1ccc(S(=O)(=O)N2CC(CC3CCC3)CC2c2nc(CCCc3ccccc3)no2)cc1 (centres unmarked) [Compound 6AI, 5-(4-(cyclobuthylmethyl)-1-((4-methoxyphenyl)sulfonyl)pyrrolidin-2-yl)-3-(3-phenylpropyl)-1,2,4-oxadiazole]"
10 to 50 µM,,O=C(NCc1cnc2ccccc2c1)N1[C@@H]2CC[C@@H](C2)[C@H]1c1nnc(Cc2cc3ccccc3[nH]2)[nH]1 [Compound 28AH]
10 to 50 µM,,"CC(C)(C)OC(=O)N1CCCC[C@H]1c1noc(CCc2ccccc2)n1 [Compound C2-16-1, Tert-butyl (S)-2-(5-phenethyl-1,2,4-oxadiazol-3-yl) piperidine-1-carboxylate]"
< 10 µM,,"CS(=O)(=O)N1CC(CC2CCC2)CC1c1nc(CCCc2ccccc2)no1 (centres unmarked) [Compound 6C, 3-(3-phenylpropyl)-5-(1-methanesulfonyl-4-cyclobutylmethylpyrrolidin-2-yl)-1,2,4-oxadiazole]"
10 to 50 µM,,O=S(=O)(N1CCCCC1)n1nc([C@H]2N[C@@H]3CC[C@H]2C3)nc1CCc1ccncc1 [25AD′]
< 10 µM,,"CC(C)COC(=O)N1CCC[C@H]1c1nc(CCCc2ccccc2)no1 [Compound 1I, Isobutyl (S)-2-(3-(3-phenylpropyl)-1,2,4-oxadiazol-5-yl) pyrrolidine-1-carboxylate]"
10 to 50 µM,,"O=C(NCc1noc([C@@H]2CCCCN2S(=O)(=O)C2CCCCC2)n1)c1cccc2ccccc12 [Compound 26B, (S)—N-((5-(1-(cyclohexylsulfonyl)piperidin-2-yl)-1,2,4-oxadiazol-3-yl)methyl)-1-naphthamide]"
< 10 µM,,"CC(C)(C)OC(=O)N1CC(CS(=O)(=O)N2C[C@H](c3ccccc3)C[C@H]2c2nc(CCCc3ccccc3)no2)C1 [Compound 7AM, tert-buthyl 3-((((2S,4S)-4-phenyl2-(3-(3-phenylpropyl)-1,2,4-oxadiazole-5-yl)pyrrolidin-1-yl)sulfonyl)methyl)azetidin-1-carboxylate]"
10 to 50 µM,,"N#C[C@H]1C[C@@H](c2nc(CCCc3ccccc3)no2)N(S(=O)(=O)c2ccc(F)cc2)C1 [Compound 41AJ, (3S,5S)-1-((4-fluorophenyl)sulfonyl)-5-(3-(3-phenylpropyl)-1,2,4-oxadiazol-5-yl)pyrrolidine-3-carbonitrile]"
10 to 50 µM,,"O=S(=O)(N1CCCCC1)N1C[C@H](F)C[C@H]1c1nc(CCCc2ccccc2)no1 [Compound 8AD, 5-((2S,4R)-4-fluoro-1-(piperidin-1-ylsulfonyl)pyrrolidin-2-yl)-3-(3-phenylpropyl)-1,2,4-oxadiazole]"
< 10 µM,,"O=C(N1CC2(CC2)C[C@H]1c1nc(CCCc2ccccc2)no1)C(F)(F)F [5D′, 3-(3-Phenylpropyl)-5-{(6S)-5-trifluoroacetyl-5-azaspiro[2.4]hept-6-yl}-1,2,4-oxadiazole]"
